Source: ChEMBL document CHEMBL4184318, “Identification of Fast-Acting 2,6-Disubstituted Imidazopyridines That Are Efficacious in the in Vivo Humanized Plasmodium falciparum NODscidIL2Rγ null Mouse Model of Malaria” (J Med Chem, 2018)
Converted amounts (≈) assume the structure as drawn.

Legend:
[1] = Kinetic solubility of the compound in HCl at pH 2 after 20 hrs by shake flask method; format: physicochemical; conditions: read-out: Kinetic_solubility
[2] = Kinetic solubility of the compound in phosphate buffered saline at pH 6.5 after 20 hrs by shake flask method; format: physicochemical; conditions: read-out: Kinetic_solubility
[3] = Drug metabolism in po dosed BALB/c mouse plasma assessed as oxidation of pyridine ring by LC-MS/MS method; format: ADME, organism-based; conditions: in vivo
[4] = Drug metabolism in po dosed BALB/c mouse plasma assessed as glucuronidation of pyridine ring by LC-MS/MS method; format: ADME, organism-based; conditions: in vivo
[5] = Drug metabolism in po dosed BALB/c mouse plasma assessed as sulfation of pyridine ring by LC-MS/MS method; format: ADME, organism-based; conditions: in vivo
[6] = Kinetic solubility of the compound in FaSSIF at pH 6.5 after 20 hrs by shake flask method; format: physicochemical; conditions: read-out: Kinetic_solubility
[7] = Drug metabolism in iv or po dosed BALB/c mouse plasma assessed as oxidation of cyclopentane ring by LC-MS/MS method; format: ADME, organism-based; conditions: in vivo
[8] = Drug metabolism in iv or po dosed BALB/c mouse plasma assessed as oxidation and dehydrogenation of cyclopentane ring by LC-MS/MS method; format: ADME, organism-based; conditions: in vivo
[9] = Drug metabolism in iv or po dosed BALB/c mouse plasma assessed as dioxidation of cyclopentane ring by LC-MS/MS method; format: ADME, organism-based; conditions: in vivo

| Structure (SMILES) | solubility kinetic at 20 h [1] [µM] | solubility kinetic at 20 h [2] [µM] | Drug metabolism [3] | Drug metabolism [4] | Drug metabolism [5] | solubility kinetic at 20 h [6] [µM] | Drug metabolism [7] | Drug metabolism [8] | Drug metabolism [9] |
| --- | --- | --- | --- | --- | --- | --- | --- | --- | --- |
| FC(F)(F)c1cccc(-c2nc3cnc(Nc4ccccn4)cc3[nH]2)c1 | 21 (≈ 7.46 µg/mL) | < 5 | Metabolite_Detected | Metabolite_Detected | Metabolite_Detected |  |  |  |  |
| FC(F)(F)c1ccc(Nc2cc3[nH]c(C4CCCC4)nc3cn2)nc1 | 132 (≈ 45.8 µg/mL) | 145 (≈ 50.4 µg/mL) |  |  |  | 85 (≈ 29.5 µg/mL) | Metabolite_Detected | Metabolite_Detected | Metabolite_Detected |
